Data taken from US20160235866A1, “MRI CONTRAST AGENTS FOR CELL LABELING” (THE GOVERNING COUNCIL OF THE UNIVERSITY OF TORONTO, priority 2013, published 2016).
Entries after “also recorded” stand apart in the source; their conditions may differ.

Experiments:
[1] = test system: Human breast cancer cells MDA-MB-231; experiment: Intracellular contrast agent concentration by GFAAS of cell digests; format: cell-based; details: for Mn / Mn content per cell relative to control: GFAAS of cell digests; for Mn: 83 μM incubation for 2 hours; for Mn content per cell relative to control: control = 1
Description: (§1) Human breast cancer cells MDA-MB-231 were grown at 37° C. with 5% CO2 in 1640-RPMI medium supplemented with 10% fetal bovine serum and 0.5% penicillin streptomycin. Contrast agents were quantified for manganese content by flame AAS prior to cell labeling. MnTCP was dissolved in ultrapure water and MnTriAMP was dissolved in DMSO to give 17 mM stock solutions. The stock solutions were added to the medium with the cells resulting in 83 μM incubation of 2-MnTriAMP or 1-MnTCP for 2 hours. The medium was removed and the cells were washed with fresh medium 5× and then were harvested by washing with PBS followed by addition of 0.05% trypsin EDTA to detach the cells. Viability was assessed directly after labeling with trypan blue exclusion test and observation of cell morphology by phase microscopy.
The intracellular contrast agent concentration was determined after cell labeling by centrifugation of a known number of cells followed by removal of the supernatant and digestion of the cells by addition of 1 M nitric acid (0.5 ml) and 30 min of heating at 70° C. Then 3 ml of ultrapure water was added to the digested cells, the mixture was filtered and then quantified by graphite furnace atomic absorption spectroscopy (GFAAS) shown in Table 3.

[2] = test system: MDA-MB-231 breast cancer cell pellets; experiment: MRI T1 and T2 time measurements of labeled cell pellets; format: cell-based, Human; details: MDA-MB-231 cell pellets after 83 μM incubation for 2 hours
Description: as §1
For MRI, cell pellets were formed by centrifugation at 440 g for 10 minutes. Subsequent MR was done with a T1-weighted 2D spin-echo image: TR=100 ms, TE=14.163 ms, 3 mm slice thickness, 0.5×0.5 mm in-plane resolution (FIG. 1).

[3] = test system: Human breast cancer cells MDA-MB-231; experiment: Viability by trypan blue exclusion test after cell labeling; format: cell-based; details: for Viability (%) (±SEM): 83 μM incubation, MDA-MB-231
Description: as §1

[4] = 0.47 T (20 MHz for 1H Larmor frequency), 37° C.; cited from earlier work

Compound	Mn [1] [mM/cell]	Mn content per cell relative to control [1]	T1 [2] [ms]	T2 [2] [ms]	Viability (%) (±SEM) ([3]; 0 hours after 2 h treatment)	Viability (%) (±SEM) ([3]; 3 days after 2 h treatment)	relaxivity [4] [mM⁻¹ s⁻¹]	cellular uptake (in words) ([1]; MDA-MB-231, compared to 1-MnTCP, from relaxation times and GFAAS data)	toxicity / cell viability after labeling (in words) ([3]; MDA-MB-231 after labeling)
O=C(O)c1c2nc(c(C(=O)O)c3ccc([n-]3)c(C(=O)O)c3nc(c(C(=O)O)c4ccc1[n-]4)C=C3)C=C2.[Cl-].[Mn+3] [1-MnTCP, [5,10,15,20-tetrakis(carboxy)porphyrinato]manganese(III) chloride]	1.90E−13	33.22	1072.1 ± 28.0	108.1 ± 9.3	98 ± 1	80 ± 6			
MnTPPS							~12		
[5-carboxy-10,15,20-tris(acetoxymethylcarboxy)porphyrinato]manganese(III) [2-MnTriAMP]	6.05E−13	105.83	215.4 ± 12.1	66.7 ± 4.4	97 ± 2	87 ± 6		significant uptake; also recorded: sufficient cellular uptake and retention	without affecting the cell viability
